Source: patent publication US11091478B2 (Fochon Pharmaceuticals, Ltd., priority 2017, dated 2021)
pIC50: −log10 of the molar value.

Key:
RS4;11 cells = assay: Cell proliferation assay (MTS), RS4;11 cells, 72 h; assay type: cell-based; conditions: Homo sapiens, RS4-11, 72 h
Procedure, shortened: (§1)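 RS4;11 and DOHH2 cells at 5000 cells/well in RPMI-1640 with 10% FBS were treated with compound at 1.5–10000 nM final, nine points, at 37 °C, 5% CO2. Exposure was 72 h for RS4;11 and 120 h for DOHH2. MTS was added for 2 h, absorbance read at 490/650 nm, and IC50 calculated.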

DOHH2 cells = assay: Cell proliferation assay (MTS), DOHH2 cells, 120 h; assay type: cell-based; conditions: Homo sapiens, DOHH-2, 120 h
Procedure, shortened: as §1

Structure (SMILES)	pIC50 (RS4;11 cells)	pIC50 (DOHH2 cells)
CC(=O)NC[C@H]1COc2cc(S(=O)(=O)NC(=O)c3ccc(N4CCN(CC5=C(c6ccc(Cl)cc6)CC(C)(C)CC5)CC4)cc3Oc3cnc4[nH]ccc4c3)cc([N+](=O)[O-])c2N1 [Example 2-53, (S)-2-((1H-pyrrolo[2,3-b]pyridin-5-yl)oxy)-N-((3-(acetamidomethyl)-5-nitro-3,4-dihydro-2H-benzo[b][1,4]oxazin-7-yl)sulfonyl)-4-(4-((4′-chloro-5,5-dimethyl-3,4,5,6-tetra-hydro-[1,1′-biphenyl]-2-yl)methyl)piperazin-1-yl)benzamide]	7.28	6.27
CC1(C)CCC(CN2CCN(c3ccc(C(=O)NS(=O)(=O)c4cc5c(c([N+](=O)[O-])c4)N[C@@H](CNC(=O)C4CCOCC4)CO5)c(Oc4cnc5[nH]ccc5c4)c3)CC2)=C(c2ccc(Cl)cc2)C1 [Example 2-54, (S)-N-((7-(N-(2-((1H-pyrrolo[2,3-b]pyridin-5-yl)oxy)-4-(4-((4′-chloro-5,5-dimethyl-3,4,5,6-tetrahydro-[1,1′-biphenyl]-2-yl)methyl)piperazin-1-yl)benzoyl)sulfamoyl)-5-nitro-3,4-dihydro-2H-benzo[b][1,4]oxa-zin-3-yl)meth-yl)tetrahydro-2H-pyran-4-carboxamide]	7.21	6.87
CC1(C)CCC(CN2CCN(c3ccc(C(=O)NS(=O)(=O)c4cc5c(c([N+](=O)[O-])c4)N[C@@H](CCNC(=O)C4CCOCC4)CO5)c(Oc4cnc5[nH]ccc5c4)c3)CC2)=C(c2ccc(Cl)cc2)C1 [Example 2-56, (S)-N-(2-(7-(N-(2-((1H-pyrrolo[2,3-b]pyridin-5-yl)oxy)-4-(4-((4′-chloro-5,5-dimethyl-3,4,5,6-tetrahydro-[1,1′-biphenyl]-2-yl)meth-yl)piperazin-1-yl)benzoyl)sulfamoyl)-5-nitro-3,4-dihydro-2H-benzo[b][1,4]oxazin-3-yl)ethyl)tetrahydro-2H-pyran-4-carboxamide]	7.39	6.24
COC(=O)NC[C@H]1COc2cc(S(=O)(=O)NC(=O)c3ccc(N4CCN(CC5=C(c6ccc(Cl)cc6)CC(C)(C)CC5)CC4)cc3Oc3cnc4[nH]ccc4c3)cc([N+](=O)[O-])c2N1 [Example 2-60, methyl (S)-((7-(N-(2-((1H-pyrrolo[2,3-b]pyridin-5-yl)oxy)-4-(4-((4′-chloro-5,5-dimethyl-3,4,5,6-tetrahydro-[1,1′-biphenyl]-2-yl)methyl)piperazin-1-yl)benzoyl)sulfamoyl)-5-nitro-3,4-dihydro-2H-benzo[b][1,4]oxazin-3-yl)meth-yl)carbamate]	9.00	7.09
CC1(C)CCC(CN2CCN(c3ccc(C(=O)NS(=O)(=O)c4cc5c(c([N+](=O)[O-])c4)N[C@@H](CNC(=O)OC4CCOCC4)CO5)c(Oc4cnc5[nH]ccc5c4)c3)CC2)=C(c2ccc(Cl)cc2)C1 [Example 2-61, tetrahydro-2H-pyran-4-yl (S)-((7-(N-(2-((1H-pyrrolo[2,3-b]pyridin-5-yl)oxy)-4-(4-((4′-chloro-5,5-dimethyl-3,4,5,6-tetrahydro-[1,1′-biphenyl]-2-yl)methyl)piperazin-1-yl)benzoyl)sulfamoyl)-5-nitro-3,4-dihydro-2H-benzo[b][1,4]oxazin-3-yl)methyl)carbamate]	7.32	6.35
COC(=O)NCC[C@@H]1COc2cc(S(=O)(=O)NC(=O)c3ccc(N4CCN(CC5=C(c6ccc(Cl)cc6)CC(C)(C)CC5)CC4)cc3Oc3cnc4[nH]ccc4c3)cc([N+](=O)[O-])c2N1 [Example 2-63, methyl (R)-(2-(7-(N-(2-((1H-pyrrolo[2,3-b]pyridin-5-yl)oxy)-4-(4-((4′-chloro-5,5-dimethyl-3,4,5,6-tetrahydro-[1,1′-biphenyl]-2-yl)methyl)piperazin-1-yl)benzoyl)sulfamoyl)-5-nitro-3,4-dihydro-2H-benzo[b][1,4]oxazin-3-yl)ethyl)carbamate]	7.92	7.19
CC1(C)CCC(CN2CCN(c3ccc(C(=O)NS(=O)(=O)c4cc5c(c([N+](=O)[O-])c4)N[C@H](CCS(C)(=O)=O)CO5)c(Oc4cnc5[nH]ccc5c4)c3)CC2)=C(c2ccc(Cl)cc2)C1 [Example 2-64, (R)-2-((1H-pyrrolo[2,3-b]pyriidn-5-yl)oxy)-4-(4-((4′-chloro-5,5-dimethyl-3,4,5,6-tetra-hydro-[1,1′-biphenyl]-2-yl)methyl)piperazin-1-yl)-N-((3-(2-(methylsulfonyl)ethyl)-5-nitro-3,4-dihydro-2H-benzo[b][1,4]oxazin-7-yl)sulfonyl)benzamide]	7.60	7.15
COCC[C@@H]1COc2cc(S(=O)(=O)NC(=O)c3ccc(N4CCN(CC5=C(c6ccc(Cl)cc6)CC(C)(C)CC5)CC4)cc3Oc3cnc4[nH]ccc4c3)cc([N+](=O)[O-])c2N1 [Example 2-65, (R)-2-((1H-pyrrolo[2,3-b]pyridin-5-yl)oxy)-4-(4-((4′-chloro-5,5-dimethyl-3,4,5,6-tetra-hydro-[1,1′-biphenyl]-2-yl)methyl)piperazin-1-yl)-N-((3-(2-methoxyethyl)-5-nitro-3,4-dihydro-2H-benzo[b][1,4]oxazin-7-yl)sulfonyl)benzamide]	7.70	7.85
CC1(C)CCC(CN2CCN(c3ccc(C(=O)NS(=O)(=O)c4cc5c(c([N+](=O)[O-])c4)N[C@@H](CNS(C)(=O)=O)CO5)c(Oc4cnc5[nH]ccc5c4)c3)CC2)=C(c2ccc(Cl)cc2)C1 [Example 2-66, (S)-2-((1H-pyrrolo[2,3-b]pyridin-5-yl)oxy)-4-(4-((4′-chloro-5,5-dimethyl-3,4,5,6-tetra-hydro-[1,1′-biphenyl]-2-yl)methyl)piperazin-1-yl)-N-((3-(methylsulfonamidomethyl)-5-nitro-3,4-dihydro-2H-benzo[b][1,4]oxazin-7-yl)sulfonyl)benzamide]	7.74	7.89
CC1(C)CCC(CN2CCN(c3ccc(C(=O)NS(=O)(=O)c4cc5c(c([N+](=O)[O-])c4)N[C@H](CCNS(C)(=O)=O)CO5)c(Oc4cnc5[nH]ccc5c4)c3)CC2)=C(c2ccc(Cl)cc2)C1 [Example 2-68, (R)-2-((1H-pyrrolo[2,3-b]pyridin-5-yl)oxy)-4-(4-((4′-chloro-5,5-dimethyl-3,4,5,6-tetra-hydro-[1,1′-biphenyl]-2-yl)methyl)piperazin-1-yl)-N-((3-(2-(methysulfonamido)ethyl)-5-nitro-3,4-dihydro-2H-benzo[b][1,4]oxa-zin-7-yl)sulfonyl)benzamide]	7.59	7.08
CC1(C)CCC(CN2CCN(c3ccc(C(=O)NS(=O)(=O)c4cc5c(c([N+](=O)[O-])c4)N[C@H](CN=S(C)(C)=O)CO5)c(Oc4cnc5[nH]ccc5c4)c3)CC2)=C(c2ccc(Cl)cc2)C1 [Example 2-70, (R)-2-((1H-pyrrolo[2,3-b]pyridin-5-yl)oxy)-4-(4-((4′-chloro-5,5-dimethyl-3,4,5,6-tetra-hydro-[1,1′-biphenyl]-2-yl)methyl)piperazin-1-yl)-N-((3-(((dimethyl(oxo)-λ^6-sulfanyl-idene)amino)methyl)-5-nitro-3,4-dihydro-2H-benzo[b][1,4]oxazin-7-yl)sulfonyl)benza-mide]	8.30	7.55

More lines, main results first:

pIC50 (RS4;11 cells)	Structure (SMILES)	pIC50 (DOHH2 cells)
7.85	CC1(C)CCC(CN2CCN(c3ccc(C(=O)NS(=O)(=O)c4cc5c(c([N+](=O)[O-])c4)N[C@@H](CCN4CCN(C6COC6)CC4)CO5)c(Oc4cnc5[nH]ccc5c4)c3)CC2)=C(c2ccc(Cl)cc2)C1 [Example 2-48, (S)-2-((1H-pyrrolo[2,3-b]pyridin-5-yl)oxy)-4-(4-((4′-chloro-5,5-dimethyl-3,4,5,6-tetra-hydro-[1,1′-biphenyl]-2-yl)methyl)piperazin-1-yl)-N-((5-nitro-3-(2-(4-(oxetan-3-yl)piper-azin-1-yl)ethyl)-3,4-dihydro-2H-benzo [b][1,4]oxazin-7-yl)sulfonyl)benzamide]	8.05
7.80	C[C@@H]1CN(CC[C@H]2COc3cc(S(=O)(=O)NC(=O)c4ccc(N5CCN(CC6=C(c7ccc(Cl)cc7)CC(C)(C)CC6)CC5)cc4Oc4cnc5[nH]ccc5c4)cc([N+](=O)[O-])c3N2)CCN1C1COC1 [Example 2-49, 2-((1H-pyrrolo[2,3-b]pyridin-5-yl)oxy)-4-(4-((4′-chloro-5,5-dimethyl-3,4,5,6-tetrahydro-[1,1′-biphenyl]-2-yl)methyl)piperazin-1-yl)-N-(((S)-3-(2-((R)-3-methyl-4-(oxetan-3-yl)piperazin-1-yl)ethyl)-5-nitro-3,4-dihydro-2H-benzo[b][1,4]oxazin-7-yl)sulfonyl) benzamide]	7.92
8.05	C[C@H]1CN(CC[C@H]2COc3cc(S(=O)(=O)NC(=O)c4ccc(N5CCN(CC6=C(c7ccc(Cl)cc7)CC(C)(C)CC6)CC5)cc4Oc4cnc5[nH]ccc5c4)cc([N+](=O)[O-])c3N2)CCN1C1COC1 [Example 2-50]	7.66
8.00	C[C@H]1CN(CC[C@H]2COc3cc(S(=O)(=O)NC(=O)c4ccc(N5CCN(CC6=C(c7ccc(Cl)cc7)CC(C)(C)CC6)CC5)cc4Oc4cnc5[nH]ccc5c4)cc([N+](=O)[O-])c3N2)CCO1 [Example 2-51]	7.89
7.60	C[C@@H]1CN(CC[C@H]2COc3cc(S(=O)(=O)NC(=O)c4ccc(N5CCN(CC6=C(c7ccc(Cl)cc7)CC(C)(C)CC6)CC5)cc4Oc4cnc5[nH]ccc5c4)cc([N+](=O)[O-])c3N2)CCO1 [Example 2-52, 2-((1H-pyrrolo[2,3-b]pyridin-5-yl)oxy)-4-(4-((4′-chloro-5,5-dimethyl-3,4,5,6-tetrahydro-[1,1′-biphenyl]-2-yl)methyl)piperazin-1-yl)-N-(((S)-3-(2-((R)-2-methylmorpholino)ethyl)-5-nitro-3,4-dihydro-2H-benzo[b][1,4]oxazin-7-yl)sulfonyl)benzamide]	7.51
